The test system of one experiment is Rat white adipocytes. In words: Inhibition of the differentiation of adipocytes (Oil Red O). Format: cell-based. The conditions noted are these: 100 nM test compound, 5 days, Oil Red O ABS550, control = 100%, blank = 0%, Table 3; for activity at 0.1 µM: Rattus norvegicus, Adipocyte, 120 h, read-out: Rate of Differentiation (%). In a few lines: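 Rat white preadipocytes, 5,000 cells/well, given differentiation medium with compound at 100 nM final (0.1% DMSO) for 5 days at 37 °C. Lipid stained with Oil Red O, eluted in DMSO, read at 550 nm; differentiation % relative to DMSO control (100%) and blank (0%).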

The subject of another experiment is leptin production. In words: Enhancing activity for leptin production in adipocytes (ELISA). The class given is cell-based, rat. The conditions noted are these: leptin concentration as % of control group; for activity at 1 µM / activity at 0.001 µM / activity at 0.01 µM / activity at 0.1 µM: Rattus norvegicus, Adipocyte, read-out: Facilitating activity to produce leptin. In a few lines: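 Leptin release, quantified by rat leptin ELISA, expressed as percent of 0.1% DMSO control after 24 h at 37 °C. Cells were floating adipocytes isolated by collagenase digestion of epididymal fat from male 6-week Wistar Imamichi rats; compound tested at 1 nM–1 µM final.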
Background: An ELISA detects its analyte on a solid surface through an enzyme-linked reagent.

Structures can show the parent of a compound that is named as a salt. Where two headings read alike, the source gives them in different places.

Turning to `O=C(Nc1ccc([N+](=O)[O-])cn1)c1cc([N+](=O)[O-])ccc1Cl` [Example 24, N-(5-Nitropyridin-2-yl)-(2-chloro-5-nitrophenyl)carboxamide], the activity at 0.1 µM in the experiment on Rat white adipocytes amounted to 59.1%; in the experiment on leptin production (100 nm, 24 hr), 143%. In the experiment on leptin production (1 μM, 24 hr), the activity at 1 µM is 144%. Besides, the activity at 0.001 µM with leptin production (1 nm, 24 hr) stood at 112%. Also, in the experiment with leptin production (10 nm, 24 hr), the activity at 0.01 µM stood at 121%.

For `Nc1ccc(-c2ccc(NC(=O)c3cc([N+](=O)[O-])ccc3Cl)cc2)cc1` [Example 88, N-[4-(4-Aminophenyl)phenyl]-(2-chloro-5-nitrophenyl)carboxamide mono-hydrochloride], the “Rate of Differentiation (%)” value in the experiment with Rat white adipocytes (mono-hydrochloride) was determined as 63.3%. The activity at 1 µM in the experiment on leptin production (24 h, 1 μM) amounted to 115%. The activity at 0.1 µM in the experiment on leptin production (24 h, 100 nm) was 119%.

As to `CCN(CC)c1ccc(-c2ccc(NC(=O)c3cc([N+](=O)[O-])ccc3Cl)cc2)cc1` [Example 217, N-[4-[4-(N,N-Diethylamino)phenyl]phenyl]-(2-chloro-5-nitrophenyl)carboxamide], the activity at 0.1 µM in the experiment with Rat white adipocytes was determined as 21%; with leptin production (24 h, 100 nm), 117%. Further, in the experiment on leptin production (24 h, 1 μM), the activity at 1 µM is 121%. The activity at 0.01 µM in the experiment with leptin production (24 h, 10 nm) was found to be 116%.

With `O=C(Nc1ccc(N2CCN(C(=O)c3ccccc3)CC2)cc1)c1cc([N+](=O)[O-])ccc1Cl` [Example 184, N-[4-(4-Benzoylpiperazin-1-yl)phenyl]-(2-chloro-5-nitrophenyl)carboxamide], the activity at 0.1 µM in the experiment with Rat white adipocytes was 46.6%; with leptin production (24 h, 100 nm), 123%. For the same compound, the activity at 0.01 µM in the experiment with leptin production (24 h, 10 nm) is 122%.

For `O=C(Nc1ccc(-c2ccc(NC(=S)Nc3ccccc3)cc2)cc1)c1cc([N+](=O)[O-])ccc1Cl` [Example 252, N-[4-[4-(Phenylaminothiocarbonylamino)phenyl]phenyl]-(2-chloro-5-nitrophenyl)carboxamide], the activity at 0.1 µM amounted to 36.7% in the experiment on Rat white adipocytes and 113% with leptin production (24 h, 100 nm). Also, the activity at 1 µM with leptin production (24 h, 1 μM) came to 108%. For the same compound, the activity at 0.01 µM in the experiment on leptin production (24 h, 10 nm) stood at 110%.

As for `O=C(Nc1cccc([N+](=O)[O-])c1)c1cc([N+](=O)[O-])ccc1Cl` [Example 25, N-(3-Nitrophenyl)-(2-chloro-5-nitrophenyl)carboxamide], the activity at 0.1 µM in the experiment on Rat white adipocytes stood at 84%; in the experiment on leptin production (100 nm, 24 hr) it was 156%. In the experiment on leptin production (1 nm, 24 hr), the activity at 0.001 µM was 113%. Moreover, the activity at 0.01 µM with leptin production (10 nm, 24 hr) is 118%.

As to “N-[4-[4-(Pyrrolidin-1-ylamino)phenyl]phenyl]-(2-chloro-5-nitrophenyl)carboxamide [Example 171]”, in the experiment on Rat white adipocytes, the “Rate of Differentiation (%)” value is 43.0%. Besides, the “Facilitating activity to produce leptin” value in the experiment with leptin production (1 μM, 24 hr) amounted to 126.7%; with leptin production (1 nm, 24 hr), 113.2%; with leptin production (10 nm, 24 hr) it was 115.4%; in the experiment with leptin production (100 nm, 24 hr) it was 128.1%.

On to `CC(=O)c1ccc(NC(=O)c2cc([N+](=O)[O-])ccc2Cl)cc1` [Example 155, N-(4-Acetylphenyl)-(2-chloro-5-nitrophenyl)carboxamide], for which the activity at 0.1 µM with Rat white adipocytes stood at 82.7%; with leptin production (24 h, 100 nm), 130%. The activity at 1 µM in the experiment with leptin production (24 h, 1 μM) came out at 114%.

Take `O=C(Nc1cccc(C(=O)N2CCCC2)c1)c1cc([N+](=O)[O-])ccc1Cl` [Example 31]: the “Rate of Differentiation (%)” value with Rat white adipocytes is recorded as 77.2%. Moreover, the “Facilitating activity to produce leptin” value with leptin production (100 nm, 24 hr) is 116.9%.
